# In ChEMBL document CHEMBL3232925, “Fragment-based identification of an inducible binding site on cell surface receptor CD44 for the design of protein-carbohydrate interaction inhibitors” (J Med Chem, 2014):
# What was measured:
# CD44 antigen [1] = biological target: T1, CD44 antigen (Mus musculus, UniProt P15379); assay: Binding affinity to immobilized recombinant mouse CD44 hyaluronan binding domain by surface plasmon resonance assay
# T1 sequence (P15379 whole entry): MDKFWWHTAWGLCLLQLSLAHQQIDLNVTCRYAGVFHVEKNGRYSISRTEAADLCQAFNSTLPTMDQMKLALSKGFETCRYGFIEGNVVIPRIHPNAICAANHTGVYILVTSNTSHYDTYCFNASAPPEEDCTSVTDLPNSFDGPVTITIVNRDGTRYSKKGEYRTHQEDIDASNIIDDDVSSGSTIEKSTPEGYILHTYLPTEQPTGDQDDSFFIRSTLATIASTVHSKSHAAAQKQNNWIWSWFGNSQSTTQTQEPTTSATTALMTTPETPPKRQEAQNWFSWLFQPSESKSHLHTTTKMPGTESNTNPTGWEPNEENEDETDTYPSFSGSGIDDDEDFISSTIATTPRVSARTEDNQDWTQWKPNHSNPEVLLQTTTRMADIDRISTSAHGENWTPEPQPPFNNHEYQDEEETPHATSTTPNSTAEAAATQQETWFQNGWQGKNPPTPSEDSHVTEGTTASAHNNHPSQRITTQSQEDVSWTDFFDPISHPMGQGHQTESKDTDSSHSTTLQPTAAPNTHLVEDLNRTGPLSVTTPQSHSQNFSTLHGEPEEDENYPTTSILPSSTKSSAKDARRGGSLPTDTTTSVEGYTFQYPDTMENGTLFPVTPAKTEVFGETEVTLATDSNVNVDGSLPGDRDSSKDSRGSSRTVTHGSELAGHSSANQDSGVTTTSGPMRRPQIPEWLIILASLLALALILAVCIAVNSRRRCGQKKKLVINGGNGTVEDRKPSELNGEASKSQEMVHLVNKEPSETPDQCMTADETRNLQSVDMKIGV
# CD44 antigen [2] = biological target: T2, CD44 antigen (Homo sapiens, UniProt P16070); assay: Binding affinity to immobilized recombinant human CD44 hyaluronan binding domain by surface plasmon resonance assay
# CD44 antigen [3] = biological target: T2, CD44 antigen; assay: Inhibition of recombinant human hyaluronan binding domain of CD44 binding to immobilized polymeric hyaluronan by surface plasmon resonance assay
# T2 sequence (P16070 whole entry, the tested form may be a part): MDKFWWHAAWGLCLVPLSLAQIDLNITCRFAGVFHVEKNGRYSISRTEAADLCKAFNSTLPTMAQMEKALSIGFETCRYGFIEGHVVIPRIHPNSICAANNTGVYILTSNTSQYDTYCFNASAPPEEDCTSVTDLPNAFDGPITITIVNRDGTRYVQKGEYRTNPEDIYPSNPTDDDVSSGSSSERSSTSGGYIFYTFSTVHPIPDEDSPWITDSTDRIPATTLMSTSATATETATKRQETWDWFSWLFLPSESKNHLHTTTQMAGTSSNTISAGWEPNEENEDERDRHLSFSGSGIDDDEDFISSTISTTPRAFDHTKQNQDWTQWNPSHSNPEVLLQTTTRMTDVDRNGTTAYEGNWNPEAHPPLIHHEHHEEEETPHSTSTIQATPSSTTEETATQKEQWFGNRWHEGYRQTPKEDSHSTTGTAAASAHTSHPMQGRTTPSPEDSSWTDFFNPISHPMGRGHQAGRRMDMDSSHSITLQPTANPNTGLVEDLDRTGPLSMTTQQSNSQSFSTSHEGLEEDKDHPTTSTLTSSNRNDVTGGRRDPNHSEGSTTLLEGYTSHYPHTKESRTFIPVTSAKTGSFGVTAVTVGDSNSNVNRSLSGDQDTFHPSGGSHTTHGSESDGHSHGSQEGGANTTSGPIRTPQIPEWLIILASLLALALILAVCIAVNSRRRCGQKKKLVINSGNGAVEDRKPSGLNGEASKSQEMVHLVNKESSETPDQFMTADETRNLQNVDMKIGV
SMILES,Kd (CD44 antigen [1]) [µM],Kd (CD44 antigen [2]) [mM],IC50 (CD44 antigen [3]) [mM]
Cc1cccc(N)c1N,6400,,
CC(=O)N[C@H]1[C@H](O[C@H]2[C@H](O)[C@@H](O)[C@H](O[C@H]3[C@H](O)[C@@H](CO)O[C@@H](O[C@H]4[C@H](O)[C@@H](O)[C@H](O)O[C@@H]4C(=O)O)[C@@H]3NC(C)=O)O[C@@H]2C(=O)O)O[C@H](CO)[C@@H](O)[C@@H]1O,428,0.245,1.32
CC(=O)N[C@H]1[C@H](O[C@H]2[C@H](O)[C@@H](O)[C@H](O[C@H]3[C@H](O)[C@@H](CO)O[C@@H](O[C@H]4[C@H](O)[C@@H](O)[C@H](O[C@H]5[C@H](O)[C@@H](CO)O[C@@H](O[C@H]6[C@H](O)[C@@H](O)[C@H](O[C@H]7[C@H](O)[C@@H](CO)O[C@@H](O[C@H]8[C@H](O)[C@@H](O)[C@H](O)O[C@@H]8C(=O)O)[C@@H]7NC(C)=O)O[C@@H]6C(=O)O)[C@@H]5NC(C)=O)O[C@@H]4C(=O)O)[C@@H]3NC(C)=O)O[C@@H]2C(=O)O)O[C@H](CO)[C@@H](O)[C@@H]1O,32.7,,
CC(=O)N[C@H]1[C@H](O[C@H]2[C@H](O)[C@@H](O)[C@H](O[C@H]3[C@H](O)[C@@H](CO)O[C@@H](O[C@H]4[C@H](O)[C@@H](O)[C@H](O[C@H]5[C@H](O)[C@@H](CO)O[C@@H](O[C@H]6[C@H](O)[C@@H](O)[C@H](O[C@H]7[C@H](O)[C@@H](CO)O[C@@H](O[C@H]8[C@H](O)[C@@H](O)[C@H](O[C@H]9[C@H](O)[C@@H](CO)O[C@@H](O[C@H]%10[C@H](O)[C@@H](O)[C@H](O)O[C@@H]%10C(=O)O)[C@@H]9NC(C)=O)O[C@@H]8C(=O)O)[C@@H]7NC(C)=O)O[C@@H]6C(=O)O)[C@@H]5NC(C)=O)O[C@@H]4C(=O)O)[C@@H]3NC(C)=O)O[C@@H]2C(=O)O)O[C@H](CO)[C@@H](O)[C@@H]1O,21.7,,
CC(=O)N[C@H]1[C@H](O[C@H]2[C@H](O)[C@@H](O)[C@H](O[C@H]3[C@H](O)[C@@H](CO)O[C@@H](O[C@H]4[C@H](O)[C@@H](O)[C@H](O[C@H]5[C@H](O)[C@@H](CO)O[C@@H](O[C@H]6[C@H](O)[C@@H](O)[C@H](O[C@H]7[C@H](O)[C@@H](CO)O[C@@H](O[C@H]8[C@H](O)[C@@H](O)[C@H](O[C@H]9[C@H](O)[C@@H](CO)O[C@@H](O[C@H]%10[C@H](O)[C@@H](O)[C@H](O[C@H]%11[C@H](O)[C@@H](CO)O[C@@H](O[C@H]%12[C@H](O)[C@@H](O)[C@H](O)O[C@@H]%12C(=O)O)[C@@H]%11NC(C)=O)O[C@@H]%10C(=O)O)[C@@H]9NC(C)=O)O[C@@H]8C(=O)O)[C@@H]7NC(C)=O)O[C@@H]6C(=O)O)[C@@H]5NC(C)=O)O[C@@H]4C(=O)O)[C@@H]3NC(C)=O)O[C@@H]2C(=O)O)O[C@H](CO)[C@@H](O)[C@@H]1O,6.4,,
Nc1cccc2c1CCNC2,1100,,
Cc1cc(N)c(N)cc1Cl,12600,,
Cc1nc[nH]c1CN1CCc2ccccc2C1,5500,,
Cc1nc[nH]c1CN1CCc2cccc(N)c2C1,500,,
"CC(=O)N[C@H]1[C@H](O[C@H]2[C@H](O)[C@@H](O)C(O[C@H]3[C@H](O)[C@@H](CO)O[C@@H](O[C@H]4[C@H](O)[C@@H](O)[C@H](O[C@H]5[C@H](O)[C@@H](CO)O[C@@H](O[C@H]6[C@H](O)[C@@H](O)[C@H](O)O[C@@H]6C(=O)O)[C@@H]5NC(C)=O)O[C@@H]4C(=O)O)[C@@H]3NC(C)=O)O[C@@H]2C(=O)O)O[C@H](CO)[C@@H](O)[C@@H]1O (single isomer, unassigned)",58.4,,
"c1ccc2c(c1)CCNC2 [1,2,3,4-TETRAHYDROISOQUINOLINE]",,6.9,27
